Data published in the NIST ThermoML archive (doi:10.1016/j.jct.2015.12.017).

Experiment: molar heat capacity at constant pressure
Conditions: 101.33 kPa

O=P([O-])([O-])[O-].[Co+2].[Cs+] [cesium cobalt(II) phosphate]
Conditions	molar heat capacity at constant pressure [J/K/mol]
304.98 K, Crystal 4, Vacuum adiabatic calorimetry	136.11
305.47 K, Crystal 4, Vacuum adiabatic calorimetry	136.19
306.97 K, Crystal 4, Vacuum adiabatic calorimetry	137.44
307.51 K, Crystal 4, Vacuum adiabatic calorimetry	137.6
308.95 K, Crystal 4, Vacuum adiabatic calorimetry	138.69
309.32 K, Crystal 4, Vacuum adiabatic calorimetry	139.1
310 K, Crystal 4, Vacuum adiabatic calorimetry	136.94
310.91 K, Crystal 4, Vacuum adiabatic calorimetry	142.43
311.46 K, Crystal 4, Vacuum adiabatic calorimetry	142.34
312.84 K, Crystal 4, Vacuum adiabatic calorimetry	144.42
313.4 K, Crystal 3, Vacuum adiabatic calorimetry	139.93
313.4 K, Crystal 4, Vacuum adiabatic calorimetry	137.85
313.44 K, Crystal 3, Vacuum adiabatic calorimetry	144.34
314.77 K, Crystal 3, Vacuum adiabatic calorimetry	143.84
315.42 K, Crystal 3, Vacuum adiabatic calorimetry	144.09
316.69 K, Crystal 3, Vacuum adiabatic calorimetry	142.51
317.39 K, Crystal 3, Vacuum adiabatic calorimetry	143.18
318.6 K, Crystal 3, Vacuum adiabatic calorimetry	141.68
319.35 K, Crystal 3, Vacuum adiabatic calorimetry	142.51
320 K, Crystal 3, Vacuum adiabatic calorimetry	142.34
320.51 K, Crystal 3, Vacuum adiabatic calorimetry	142.01
321.31 K, Crystal 3, Vacuum adiabatic calorimetry	142.84
322.4 K, Crystal 3, Vacuum adiabatic calorimetry	142.76
323.26 K, Crystal 3, Vacuum adiabatic calorimetry	143.42
324.27 K, Crystal 3, Vacuum adiabatic calorimetry	143.42
325.2 K, Crystal 3, Vacuum adiabatic calorimetry	144.09
326.14 K, Crystal 3, Vacuum adiabatic calorimetry	144.09
327.14 K, Crystal 3, Vacuum adiabatic calorimetry	144.59
327.98 K, Crystal 3, Vacuum adiabatic calorimetry	144.75
329.07 K, Crystal 3, Vacuum adiabatic calorimetry	145.09
330 K, Crystal 3, Vacuum adiabatic calorimetry	145.34
330.98 K, Crystal 3, Vacuum adiabatic calorimetry	145.59
332.87 K, Crystal 3, Vacuum adiabatic calorimetry	146
334.4 K, Crystal 3, Small sample (50 mg) DSC	146.33
334.77 K, Crystal 3, Vacuum adiabatic calorimetry	146.58
336.65 K, Crystal 3, Vacuum adiabatic calorimetry	147.08
336.9 K, Crystal 3, Small sample (50 mg) DSC	147.17
338.52 K, Crystal 3, Vacuum adiabatic calorimetry	147.5
339.4 K, Crystal 3, Small sample (50 mg) DSC	148
340 K, Crystal 3, Vacuum adiabatic calorimetry	147.91
340.21 K, Crystal 3, Vacuum adiabatic calorimetry	148
341.82 K, Crystal 3, Vacuum adiabatic calorimetry	148.41
341.9 K, Crystal 3, Small sample (50 mg) DSC	148
343.88 K, Crystal 3, Vacuum adiabatic calorimetry	149.08
344.4 K, Crystal 3, Small sample (50 mg) DSC	148.83
345.68 K, Crystal 3, Vacuum adiabatic calorimetry	149.58
346.9 K, Crystal 3, Small sample (50 mg) DSC	149.66
347.49 K, Crystal 3, Vacuum adiabatic calorimetry	150.08
349.26 K, Crystal 3, Vacuum adiabatic calorimetry	150.49
349.4 K, Crystal 3, Small sample (50 mg) DSC	150.49
350 K, Crystal 3, Small sample (50 mg) DSC	150.41
351.9 K, Crystal 3, Small sample (50 mg) DSC	151.32
354.4 K, Crystal 3, Small sample (50 mg) DSC	151.32
356.9 K, Crystal 3, Small sample (50 mg) DSC	152.15
359.4 K, Crystal 3, Small sample (50 mg) DSC	152.99
360 K, Crystal 3, Small sample (50 mg) DSC	152.74
361.9 K, Crystal 3, Small sample (50 mg) DSC	152.99
364.4 K, Crystal 3, Small sample (50 mg) DSC	152.99
366.9 K, Crystal 3, Small sample (50 mg) DSC	153.82
369.4 K, Crystal 3, Small sample (50 mg) DSC	154.65
370 K, Crystal 3, Small sample (50 mg) DSC	154.82
371.9 K, Crystal 3, Small sample (50 mg) DSC	155.48
374.4 K, Crystal 3, Small sample (50 mg) DSC	155.48
376.9 K, Crystal 3, Small sample (50 mg) DSC	156.31
379.4 K, Crystal 3, Small sample (50 mg) DSC	156.31
380 K, Crystal 3, Small sample (50 mg) DSC	156.73
381.9 K, Crystal 3, Small sample (50 mg) DSC	157.14
384.4 K, Crystal 3, Small sample (50 mg) DSC	157.14
386.9 K, Crystal 3, Small sample (50 mg) DSC	157.97
389.4 K, Crystal 3, Small sample (50 mg) DSC	157.97
390 K, Crystal 3, Small sample (50 mg) DSC	158.47
391.9 K, Crystal 3, Small sample (50 mg) DSC	158.81
394.4 K, Crystal 3, Small sample (50 mg) DSC	159.64
396.9 K, Crystal 3, Small sample (50 mg) DSC	159.64
399.4 K, Crystal 3, Small sample (50 mg) DSC	160.47
400 K, Crystal 3, Small sample (50 mg) DSC	160.14
401.9 K, Crystal 3, Small sample (50 mg) DSC	160.47
404.4 K, Crystal 3, Small sample (50 mg) DSC	161.3
406.9 K, Crystal 3, Small sample (50 mg) DSC	161.3
409.4 K, Crystal 3, Small sample (50 mg) DSC	161.3
410 K, Crystal 3, Small sample (50 mg) DSC	161.72
411.9 K, Crystal 3, Small sample (50 mg) DSC	162.13
414.4 K, Crystal 3, Small sample (50 mg) DSC	162.13
416.9 K, Crystal 3, Small sample (50 mg) DSC	162.96
419.4 K, Crystal 3, Small sample (50 mg) DSC	162.96
420 K, Crystal 3, Small sample (50 mg) DSC	163.13
421.9 K, Crystal 3, Small sample (50 mg) DSC	162.96
424.4 K, Crystal 3, Small sample (50 mg) DSC	163.8
426.9 K, Crystal 3, Small sample (50 mg) DSC	163.8
429.4 K, Crystal 3, Small sample (50 mg) DSC	164.63
430 K, Crystal 3, Small sample (50 mg) DSC	164.54
431.9 K, Crystal 3, Small sample (50 mg) DSC	164.63
434.4 K, Crystal 3, Small sample (50 mg) DSC	165.46
436.9 K, Crystal 3, Small sample (50 mg) DSC	165.46
439.4 K, Crystal 3, Small sample (50 mg) DSC	166.29
440 K, Crystal 3, Small sample (50 mg) DSC	165.96
441.9 K, Crystal 3, Small sample (50 mg) DSC	166.29
444.4 K, Crystal 3, Small sample (50 mg) DSC	167.12
446.9 K, Crystal 3, Small sample (50 mg) DSC	167.12
449.4 K, Crystal 3, Small sample (50 mg) DSC	167.12
450 K, Crystal 3, Small sample (50 mg) DSC	167.45
